Calls of active or inactive are those of the source. The rule behind the calls is not given here.
How the values were obtained:
[1] = Reversal of resistance to paclitaxel-induced cytotoxicity in paclitaxel-resistant human SW-620/AD300 cells assessed as reduction in paclitaxel IC50 at 2 uM pre-incubated for 4 hrs followed by paclitaxel addition and measured after 72 hrs by MTT assay; assay type: functional, cell-based
[2] = Reversal of resistance to colchicine-induced cytotoxicity in human SW620/AD300 cells assessed as reduction in colchicine IC50 at 2 uM pre-incubated for 4 hrs followed by colchicine addition and measured after 72 hrs by MTT assay; assay type: functional, cell-based; conditions: SW-620
SW-620 [3] = assay: Effect on intracellular Rhodamine 123 accumulation in human SW620 cells at 0.5 to 2 uM incubated for 24 hrs by flow cytometry; assay type: functional, cell-based; conditions: dose 0.5-2 µM
[4] = target: T1, ATP-dependent translocase ABCB1 (Homo sapiens, UniProt P08183); assay: Inhibition of P-gp in paclitaxel-resistant human SW620/AD300 cells assessed as accumulation of paclitaxel incubated for 24 hrs by HPLC analysis; assay type: cell-based; conditions: sw-620, 24 h
[5] = Cytotoxicity against paclitaxel-resistant human SW620/AD300 cells measured after 72 hrs by MTT assay; assay type: functional, cell-based; conditions: SW-620, 72 h
HEK-293T = assay: Cytotoxicity against human HEK293T cells expressing ABCB1 (unknown origin) measured after 72 hrs by MTT assay; assay type: functional, cell-based
[6] = target: Epidermal growth factor receptor (Homo sapiens, UniProt P00533, L858R); assay: Inhibition of EGFR L858R mutant (unknown origin)
[7] = Toxicity in mouse xenografted with paclitaxel-resistant human SW620/AD300 cells assessed as change in body weight at 20 mg/kg, po in presence of 5 mg/kg paclitaxel treated for 3 days measured for 19 days; assay type: organism-based; conditions: in vivo, 456 h, time 19 day
[8] = Reversal of resistance to colchicine-induced cytotoxicity in human SW620/AD300 cells assessed as reduction in colchicine IC50 at 0.5 uM pre-incubated for 4 hrs followed by colchicine addition and measured after 72 hrs by MTT assay; assay type: functional, cell-based; conditions: SW-620
Cytochrome P450 3A4 = Cytochrome P450 3A4 (Homo sapiens, UniProt P08684); assay: Inhibition of human recombinant CYP3A4 by fluorescence assay; assay type: ADME
[9] = Reversal of resistance to colchicine-induced cytotoxicity in human SW620/AD300 cells assessed as reduction in colchicine IC50 at 1 uM pre-incubated for 4 hrs followed by colchicine addition and measured after 72 hrs by MTT assay; assay type: functional, cell-based; conditions: SW-620
[10] = target: T1, ATP-dependent translocase ABCB1; assay: Stabilization of P-gp in paclitaxel-resistant human SW620/AD300 cells at higher temperature incubated for 30 mins by Western blot based cellular thermal shift assay; assay type: cell-based; conditions: sw-620, 0.5 h
[11] = target: T1, ATP-dependent translocase ABCB1; assay: Inhibition of P-gp in paclitaxel-resistant human SW620/AD300 cells assessed as rescue of intracellular Rhodamine 123 accumulation incubated for 24 hrs by flow cytometry; assay type: cell-based; conditions: sw-620, 24 h, dose 0.5-2 µM
SW-620 [12] = assay: Effect on P-gp subcellular localization in paclitaxel-resistant human SW620/AD300 cells measured after 72 hrs by Hoechst 33258 staining based immunocytochemistry analysis; assay type: functional, cell-based
SW-620 [13] = assay: In vivo antitumor activity against paclitaxel-resistant human SW620/AD300 cells xenografted in mouse assessed as reduction in tumor volume at 20 mg/kg, po in presence of 5 mg/kg paclitaxel treated for 3 days measured for 19 days; assay type: functional, organism-based; conditions: time 19.0 day
[14] = target: T1, ATP-dependent translocase ABCB1; assay: Inhibition of recombinant human P-gp ATPase activity incubated for 60 mins by luminescence based Glo assay
[15] = Reversal of resistance to paclitaxel-induced cytotoxicity in human SW620/AD300 cells assessed as reduction in paclitaxel IC50 at 0.5 uM pre-incubated for 4 hrs followed by paclitaxel addition and measured after 72 hrs by MTT assay; assay type: functional, cell-based; conditions: SW-620
SW-620 [16] = assay: Reduction in P-gp expression in paclitaxel-resistant human SW620/AD300 cells measured after 72 hrs by Western blotting analysis; assay type: functional, cell-based
[17] = Reversal of resistance to paclitaxel-induced cytotoxicity in human SW620/AD300 cells assessed as reduction in paclitaxel IC50 at 1 uM pre-incubated for 4 hrs followed by paclitaxel addition and measured after 72 hrs by MTT assay; assay type: functional, cell-based; conditions: SW-620
[18] = Toxicity in mouse xenografted with paclitaxel-resistant human SW620/AD300 cells assessed as change in body weight at 20 mg/kg, po measured for 19 days; assay type: organism-based; conditions: in vivo, 456 h, time 19 day

T1 sequence (P08183 whole entry): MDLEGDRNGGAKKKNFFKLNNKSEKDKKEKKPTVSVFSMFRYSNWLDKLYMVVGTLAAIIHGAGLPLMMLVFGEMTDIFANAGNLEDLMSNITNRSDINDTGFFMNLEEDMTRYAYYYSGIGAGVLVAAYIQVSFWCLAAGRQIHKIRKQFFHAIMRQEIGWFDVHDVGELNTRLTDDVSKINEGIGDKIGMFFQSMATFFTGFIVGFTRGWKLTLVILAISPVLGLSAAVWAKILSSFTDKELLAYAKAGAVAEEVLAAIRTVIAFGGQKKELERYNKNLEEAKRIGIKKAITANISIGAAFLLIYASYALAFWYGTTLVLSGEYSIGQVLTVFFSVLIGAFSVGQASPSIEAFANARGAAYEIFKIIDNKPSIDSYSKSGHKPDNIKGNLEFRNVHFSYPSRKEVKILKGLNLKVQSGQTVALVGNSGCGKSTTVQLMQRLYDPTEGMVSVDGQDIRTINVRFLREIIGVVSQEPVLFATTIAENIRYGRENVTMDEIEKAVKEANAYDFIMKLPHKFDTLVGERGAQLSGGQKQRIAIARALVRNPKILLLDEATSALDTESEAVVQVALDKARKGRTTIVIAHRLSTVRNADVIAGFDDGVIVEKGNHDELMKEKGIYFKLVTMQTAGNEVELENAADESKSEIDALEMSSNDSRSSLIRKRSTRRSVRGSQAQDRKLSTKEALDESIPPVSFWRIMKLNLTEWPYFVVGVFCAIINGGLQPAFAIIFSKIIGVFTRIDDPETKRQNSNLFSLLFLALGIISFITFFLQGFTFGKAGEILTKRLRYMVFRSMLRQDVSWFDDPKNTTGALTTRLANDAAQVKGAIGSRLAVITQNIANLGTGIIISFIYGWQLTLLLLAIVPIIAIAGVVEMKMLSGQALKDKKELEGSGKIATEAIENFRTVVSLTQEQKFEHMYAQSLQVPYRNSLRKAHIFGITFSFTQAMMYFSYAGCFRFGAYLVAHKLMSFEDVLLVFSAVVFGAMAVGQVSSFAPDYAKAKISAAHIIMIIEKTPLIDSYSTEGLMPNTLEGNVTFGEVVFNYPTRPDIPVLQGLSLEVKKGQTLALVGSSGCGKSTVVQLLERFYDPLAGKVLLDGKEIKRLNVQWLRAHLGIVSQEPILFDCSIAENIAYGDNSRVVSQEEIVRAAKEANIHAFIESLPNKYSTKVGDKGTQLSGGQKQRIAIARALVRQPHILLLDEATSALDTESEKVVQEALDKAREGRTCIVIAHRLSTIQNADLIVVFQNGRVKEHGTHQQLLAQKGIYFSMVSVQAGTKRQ
Chain of Epidermal growth factor receptor (P00533 25-1210 L858R limits assumed): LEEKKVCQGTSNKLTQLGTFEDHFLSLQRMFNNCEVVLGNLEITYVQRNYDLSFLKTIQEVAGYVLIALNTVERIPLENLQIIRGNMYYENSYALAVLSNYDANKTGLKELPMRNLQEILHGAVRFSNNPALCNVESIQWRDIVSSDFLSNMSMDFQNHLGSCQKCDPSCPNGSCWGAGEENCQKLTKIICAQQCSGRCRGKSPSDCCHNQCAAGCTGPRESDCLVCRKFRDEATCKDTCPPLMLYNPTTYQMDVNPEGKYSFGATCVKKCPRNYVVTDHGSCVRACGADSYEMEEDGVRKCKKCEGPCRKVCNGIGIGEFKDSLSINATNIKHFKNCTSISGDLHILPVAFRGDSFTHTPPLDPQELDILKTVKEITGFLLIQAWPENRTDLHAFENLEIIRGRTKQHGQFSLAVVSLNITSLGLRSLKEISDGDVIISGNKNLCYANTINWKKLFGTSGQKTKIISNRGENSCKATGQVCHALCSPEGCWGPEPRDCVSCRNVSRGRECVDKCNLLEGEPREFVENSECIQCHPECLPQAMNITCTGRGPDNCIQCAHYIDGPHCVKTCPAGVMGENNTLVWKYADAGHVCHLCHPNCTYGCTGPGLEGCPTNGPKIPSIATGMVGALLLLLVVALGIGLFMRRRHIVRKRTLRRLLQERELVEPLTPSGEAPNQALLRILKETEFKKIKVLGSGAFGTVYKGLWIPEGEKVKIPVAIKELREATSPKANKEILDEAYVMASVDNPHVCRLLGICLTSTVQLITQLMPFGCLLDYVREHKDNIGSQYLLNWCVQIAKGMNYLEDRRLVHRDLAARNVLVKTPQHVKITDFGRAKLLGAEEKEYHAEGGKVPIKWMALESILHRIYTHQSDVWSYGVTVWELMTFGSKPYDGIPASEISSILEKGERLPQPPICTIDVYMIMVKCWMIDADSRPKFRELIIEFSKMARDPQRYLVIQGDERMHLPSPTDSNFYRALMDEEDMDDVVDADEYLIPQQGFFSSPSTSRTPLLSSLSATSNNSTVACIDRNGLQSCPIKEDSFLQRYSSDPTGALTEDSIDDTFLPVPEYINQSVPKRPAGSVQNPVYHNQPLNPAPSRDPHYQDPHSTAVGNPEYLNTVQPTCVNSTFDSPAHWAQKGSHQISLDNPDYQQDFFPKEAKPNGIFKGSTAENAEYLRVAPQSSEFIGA
Chain of Cytochrome P450 3A4 (P08684 whole entry): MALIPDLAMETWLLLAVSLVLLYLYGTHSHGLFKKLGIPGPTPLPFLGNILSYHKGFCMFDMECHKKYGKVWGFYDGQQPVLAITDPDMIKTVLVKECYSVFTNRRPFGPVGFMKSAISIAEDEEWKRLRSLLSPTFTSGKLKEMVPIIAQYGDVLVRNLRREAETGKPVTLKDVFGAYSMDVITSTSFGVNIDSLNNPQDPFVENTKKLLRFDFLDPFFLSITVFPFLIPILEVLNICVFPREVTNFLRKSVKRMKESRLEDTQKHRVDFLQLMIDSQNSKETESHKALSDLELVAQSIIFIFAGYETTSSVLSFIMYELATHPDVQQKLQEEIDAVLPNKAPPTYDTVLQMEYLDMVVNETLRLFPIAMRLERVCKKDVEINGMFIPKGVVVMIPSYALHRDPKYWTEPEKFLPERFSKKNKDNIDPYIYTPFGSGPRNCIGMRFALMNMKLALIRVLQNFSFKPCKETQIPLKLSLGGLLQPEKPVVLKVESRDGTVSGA

| Structure (SMILES) | Paclitaxel IC50 in presence of compound at 2 uM [1] [nM] | also measured |
| --- | --- | --- |
| COc1cc2ncnc(-c3c(-c4ccc(Cl)cc4)[nH]c4ccccc34)c2cc1OCCCN1CCOCC1 | 20 | – |
| COc1ccc(CCN(C)CCCC(C#N)(c2ccc(OC)c(OC)c2)C(C)C)cc1OC (configuration not stated) | – | IC50 [2]: 20600 nM; Activity (SW-620 [3]): inactive; Activity [4]: Dose-Dependent Effect |
| CCn1c(-c2ccccc2)c(-c2nc(-c3ccccc3)nc3ccccc23)c2ccccc21 | 1200 | – |
| COc1cc2c(c(OC)c1OC)-c1ccc(OC)c(=O)cc1[C@@H](NC(C)=O)CC2 [COLCHICINE] | – | IC50 [5]: 62500 nM; IC50 (HEK-293T): 801000 nM |
| COc1cc2ncnc(-c3c(-c4ccc(C)cc4)[nH]c4ccccc34)c2cc1OCCCN1CCOCC1 | 300 | – |
| COc1cc2ncnc(-c3c(-c4ccccc4)[nH]c4ccccc34)c2cc1OCCCN1CCOCC1 | 800 | – |
| COc1cc2ncnc(-c3c(-c4cccc(Cl)c4)[nH]c4ccccc34)c2cc1OCCCN1CCOCC1 | 200 | – |
| COc1cc2ncnc(-c3c(-c4ccc(C(C)C)cc4)[nH]c4ccccc34)c2cc1OCCCN1CCOCC1 | 300 | – |
| CCn1c(-c2ccccc2)c(-c2ncnc3ccccc23)c2ccccc21 | 2200 | – |
| C#CCn1c(-c2ccccc2)c(-c2ncnc3cc(OC)c(OCCCN4CCOCC4)cc23)c2ccccc21 | 2200 | – |
| COc1cc2ncnc(-c3c(-c4ccc(F)cc4)[nH]c4ccccc34)c2cc1OCCCN1CCOCC1 | 300 | – |
| COc1cc2ncnc(-c3c(-c4cccc(C)c4)[nH]c4ccccc34)c2cc1OCCCN1CCOCC1 | 400 | – |
| CCCCc1ccc(-c2[nH]c3ccccc3c2-c2ncnc3cc(OC)c(OCCCN4CCOCC4)cc23)cc1 | 100 | – |
| COc1cc2ncnc(-c3cn(Cc4ccc(C#N)cc4)c4ccccc34)c2cc1OCCCN1CCOCC1 | 200 | – |
| COc1cc2ncnc(-c3c(-c4ccccc4)n(Cc4cccc(Cl)c4)c4ccccc34)c2cc1OCCCN1CCOCC1 | 20 | – |
| COc1cc2ncnc(-c3c(-c4cccc(Br)c4)[nH]c4ccccc34)c2cc1OCCCN1CCOCC1 | 3000 | – |
| COc1ccc2c(-c3ncnc4cc(OC)c(OCCCN5CCOCC5)cc34)cn(Cc3ccccc3)c2c1 | 100 | – |
| CC(=O)O[C@H]1C(=O)[C@@]2(C)[C@H]([C@H](OC(=O)c3ccccc3)[C@]3(O)C[C@H](OC(=O)[C@H](O)[C@@H](NC(=O)c4ccccc4)c4ccccc4)C(C)=C1C3(C)C)[C@]1(OC(C)=O)CO[C@@H]1C[C@@H]2O [PACLITAXEL] | – | IC50 [5]: 2300 nM; IC50 (HEK-293T): 36400 nM |
| CCn1c(-c2ccccc2)c(-c2ncnc3cc(OC)c(OC)cc23)c2ccccc21 | 1600 | – |
| COc1cc2ncnc(-c3c(-c4ccc5ccccc5c4)[nH]c4ccccc34)c2cc1OCCCN1CCOCC1 | 40 | – |
| COc1cc2ncnc(-c3cn(Cc4cccc(C)c4)c4ccccc34)c2cc1OCCCN1CCOCC1 | 30 | – |
| C=CCn1c(-c2ccccc2)c(-c2ncnc3cc(OC)c(OCCCN4CCOCC4)cc23)c2ccccc21 | 2300 | – |
| CCn1c(-c2ccccc2)c(-c2ncnc3cc(OCCOC)c(OCCOC)cc23)c2ccccc21 | 800 | – |

| Structure (SMILES) | Paclitaxel IC50 in presence of compound at 2 uM [1] [nM] | also measured |
| --- | --- | --- |
| COc1cc2ncnc(-c3cn(Cc4ccccc4)c4ccccc34)c2cc1OCCCN1CCOCC1 | 50 | – |
| COc1cc2ncnc(-c3c(-c4ccccc4)n(CCCc4ccccc4)c4ccccc34)c2cc1OCCCN1CCOCC1 | 6 | – |
| COc1cc2ncnc(-c3c(-c4ccc(-c5ccccc5)cc4)[nH]c4ccccc34)c2cc1OCCCN1CCOCC1 | 20 | – |
| CCn1cc(-c2ncnc3cc(OC)c(OCCCN4CCOCC4)cc23)c2ccccc21 | 300 | – |
| COc1cc2ncnc(-c3c(Cc4ccccc4)[nH]c4ccccc34)c2cc1OCCCN1CCOCC1 | 2000 | – |
| COc1cc2ncnc(-c3c(CCc4ccccc4)[nH]c4ccccc34)c2cc1OCCCN1CCOCC1 | 200 | – |
| COc1cc2ncnc(-c3c(-c4ccc(Br)cc4)[nH]c4ccccc34)c2cc1OCCCN1CCOCC1 | 200 | – |
| COc1cc2ncnc(-c3c(-c4cccc(F)c4)[nH]c4ccccc34)c2cc1OCCCN1CCOCC1 | 800 | – |
| COc1cc2ncnc(-c3c(-c4ccccc4F)[nH]c4ccccc34)c2cc1OCCCN1CCOCC1 | 500 | – |
| CCn1c(-c2ccccc2)c(-c2ncnc3cc(OC)c(OCCCN4CCOCC4)cc23)c2ccccc21 | 700 | IC50 [6]: 1.3 nM |
| CCc1ccc(-c2[nH]c3ccccc3c2-c2ncnc3cc(OC)c(OCCCN4CCOCC4)cc23)cc1 | 70 | – |
| COc1cc2ncnc(-c3cn(Cc4ccccc4Cl)c4ccccc34)c2cc1OCCCN1CCOCC1 | 20 | – |
| CCCCn1cc(-c2ncnc3cc(OC)c(OCCCN4CCOCC4)cc23)c2ccccc21 | 400 | – |
| CCn1c(-c2ccccc2)c(-c2ncnc3ccc(Br)cc23)c2ccccc21 | 2200 | – |
| COc1cc2ncnc(-c3c(-c4ccccc4)n(Cc4ccc(Cl)cc4)c4ccccc34)c2cc1OCCCN1CCOCC1 | 7 | – |
| COc1ccc2c(c1)c(-c1ncnc3cc(OC)c(OCCCN4CCOCC4)cc13)cn2Cc1ccccc1 | 200 | – |
| COc1cc2ncnc(-c3c(-c4ccc(C(F)(F)F)cc4)[nH]c4ccccc34)c2cc1OCCCN1CCOCC1 | 700 | – |
| COc1cc2ncnc(-c3c(-c4ccccc4)n(C)c4ccccc34)c2cc1OCCCN1CCOCC1 | 100 | – |
| COc1cc2ncnc(-c3c(-c4ccccc4)n(Cc4cccc(Br)c4)c4ccccc34)c2cc1OCCCN1CCOCC1 | 20 | – |
| COc1cc2ncnc(-c3c(-c4ccccc4)n(Cc4cccc(C(F)(F)F)c4)c4ccccc34)c2cc1OCCCN1CCOCC1 | 20 | – |
| COc1cc2ncnc(-c3c(-c4cccc([N+](=O)[O-])c4)[nH]c4ccccc34)c2cc1OCCCN1CCOCC1 | 600 | – |
| COc1cc2ncnc(-c3cn(Cc4ccccc4)c4cccc(OC)c34)c2cc1OCCCN1CCOCC1 | 1000 | – |
| COc1cc2ncnc(-c3c(-c4ccccc4)n(Cc4ccccc4Br)c4ccccc34)c2cc1OCCCN1CCOCC1 | – | Activity [7]: Non-Toxic; IC50 [8]: 26500 nM; IC50 (Cytochrome P450 3A4): 4100 nM; IC50 [9]: 17200 nM; Activity [10]: Dose-Dependent Effect; Activity [11]: Dose-Dependent Effect; Activity (SW-620 [12]): inactive; Activity (SW-620 [13]): Active; IC50 [14]: 5100 nM; Activity ([14]; human, 1 h, time 60 min): Dose-Dependent Effect; IC50 [15]: 100 nM; IC50 [2]: 6200 nM; Activity (SW-620 [16]): inactive; IC50 [17]: 20 nM; Activity [18]: Non-Toxic; Activity (SW-620 [3]): inactive; Activity [4]: Dose-Dependent Effect |
